Reference: US20230135729A1, “COMPOUND WITH ANTI-SPORE ACTIVITY AND PHARMACEUTICAL COMPOSITION THEREOF” (priority 2020, published 2023)
Values after ≈ are worked out from the molar mass of the structure shown. Like-named read-outs stand apart in the source and are kept apart here.

What was measured:
Assay type in all cases: cell-based
Details in all cases: read-out: MIC (minimum concentration that completely inhibits spore germination)
[1] = tested on: spores of ATCC BBA1870 strain; experiment: Inhibition of germination of C. difficile spores (MIC), strain ATCC BBA1870
Method: (§1) According to a method disclosed in “The Journal of Infectious Diseases. 2013; 207: 1498-504”, spores of ATCC BBA1870, ATCC 43255 and ATCC 630 strains were obtained by culture and purification, and stored at 4° C.
(§2) Spore preparation: the C. difficile spores stored at 4° C. were heat-activated for 30 min at 65° C., centrifuged at 9,400 g for 2 min, and washed three times to remove any self-germinating spores.
(§3) Control drug: three cholic acid derivatives, a compound CamSA, a compound 20β (prepared by the method of “Journal of Medicinal Chemistry. 2017, 60 (8): 3451-3471”), and a compound 12a (prepared by the method of “Journal of Medicinal Chemistry. 2018, 61, 6759-6778”), were used as control drugs.
(§4) Compound preparation: the compound of the present disclosure, and the positive control drugs CamSA, 20β, and 12a were dissolved in DMSO, to prepare a stock solution with a concentration of 10 mM (prepared for immediate use).
(§5) The detection was conducted in a 96-well cell culture plate at a constant temperature of 37° C.; a final volume of each well of the 96-well plate was […] and a buffer was the BHIS medium; 150 μl of spores and drugs were added to the well in advance, and 50 μl of 4 mg/ml sodium taurocholate was added; OD580 was detected every 1 min immediately using a microplate reader, for continuously 60 min. A germination agent control group and a non-germination group were set up; after the detection, a final OD value of each well was compared with an initial value, and compared with the germination agent group to calculate a germination rate and an inhibition rate. A formula for the germination rate was:
(§6) Inhibition rate=100%−germination rate.

[2] = tested on: spores of ATCC 43255 strain; experiment: Inhibition of germination of C. difficile spores (MIC), strain ATCC 43255
Method: as §1, §2, §3, §4, §5, §6

[3] = tested on: spores of ATCC 630 strain; experiment: Inhibition of germination of C. difficile spores (MIC), strain ATCC 630
Method: as §1, §2, §3, §4, §5, §6

[4] = Clostridioides difficile, ATCCBBA1870STRAIN, 1 h, strain 1870, sodium taurocholate as germinant, BHIS medium, 37° C., OD580 for 60 min
[5] = Clostridioides difficile, ATCC43255, 1 h, strain 43255, sodium taurocholate as germinant, BHIS medium, 37° C., OD580 for 60 min
[6] = Clostridioides difficile, ATCC630, 1 h, strain 630, sodium taurocholate as germinant, BHIS medium, 37° C., OD580 for 60 min

SMILES | MIC [1, 4] [µM] | MIC [2, 5] [µM] | MIC [3, 6] [µM] | further results
CCCCCCCC(=O)O[C@@H]1C[C@@H]2CC(=O)CC[C@]2(C)[C@H]2CC[C@]3(C)[C@@H]([C@H](C)CC(=O)N[C@@H](c4ccc(Cl)s4)C(C)C)CC[C@H]3[C@H]12 [Compound I-185] | 128 (≈ 86.3 µg/mL) | 128 (≈ 86.3 µg/mL) | 128 (≈ 86.3 µg/mL) | 
CC(C)[C@@H](NC(=O)C[C@@H](C)[C@H]1CC[C@H]2[C@@H]3[C@H](O)CC4=CC(=O)C=C[C@]4(C)[C@H]3CC[C@]12C)c1ccc(Br)s1 [Compound I-160-2] | 0.5 (≈ 0.294 µg/mL) | 0.5 (≈ 0.294 µg/mL) | 0.5 (≈ 0.294 µg/mL) | 
CC(C)[C@@H](NC(=O)C[C@@H](C)[C@H]1CC[C@H]2[C@@H]3C(=O)CC4=CC(=O)C=C[C@]4(C)[C@H]3CC[C@]12C)c1ccc(Cl)s1 [Compound I-154] | 1 (≈ 0.542 µg/mL) | 0.5 (≈ 0.271 µg/mL) | 0.5 (≈ 0.271 µg/mL) | 
C[C@H](CC(=O)N[C@H](C)c1ccccc1)[C@H]1CC[C@H]2[C@@H]3C(=O)C[C@@H]4CC(=O)CC[C@]4(C)[C@H]3CC[C@]12C [Compound I-25] | 2 (≈ 0.955 µg/mL) | 1 (≈ 0.478 µg/mL) | 1 (≈ 0.478 µg/mL) | 
CC[C@@H](NC(=O)C[C@@H](C)[C@H]1CC[C@H]2[C@@H]3[C@H](O)CC4=CC(=O)C=C[C@]4(C)[C@H]3CC[C@]12C)c1ccc(Br)s1 [Compound I-159-2] | 0.5 (≈ 0.287 µg/mL) | 0.5 (≈ 0.287 µg/mL) | 0.5 (≈ 0.287 µg/mL) | 
CCC(NC(=O)C[C@@H](C)[C@H]1CC[C@H]2[C@@H]3[C@H](O)[C@H](O)[C@@H]4C[C@H](O)CC[C@]4(C)[C@H]3CC[C@]12C)c1ccc(Br)s1 (stereo partly drawn) [Compound I-118] | 16 (≈ 9.55 µg/mL) | 8 (≈ 4.77 µg/mL) | 8 (≈ 4.77 µg/mL) | 
CC[C@@H](NC(=O)C[C@@H](C)[C@H]1CC[C@H]2[C@@H]3[C@H](OS(=O)(=O)O)C[C@@H]4CC(=O)CC[C@]4(C)[C@H]3CC[C@]12C)c1ccc(Cl)s1 [Compound I-106] | 0.5 (≈ 0.307 µg/mL) | 0.25 (≈ 0.154 µg/mL) | 0.5 (≈ 0.307 µg/mL) | 
CC[C@@H](NC(=O)C[C@@H](C)[C@H]1CC[C@H]2[C@@H]3[C@H](OS(=O)(=O)O)C[C@@H]4CC(=O)CC[C@]4(C)[C@H]3CC[C@]12C)c1ccc(Br)s1 [Compound I-109] | 0.5 (≈ 0.329 µg/mL) | 0.25 (≈ 0.165 µg/mL) | 0.5 (≈ 0.329 µg/mL) | 
CC(C)[C@@H](NC(=O)C[C@@H](C)[C@H]1CC[C@H]2[C@@H]3[C@H](OS(=O)(=O)O)C[C@@H]4CC(=O)CC[C@]4(C)[C@H]3CC[C@]12C)c1ccc(Cl)s1 [Compound I-112] | 0.5 (≈ 0.314 µg/mL) | 0.25 (≈ 0.157 µg/mL) | 0.5 (≈ 0.314 µg/mL) | 
CC(C)[C@@H](NC(=O)C[C@@H](C)[C@H]1CC[C@H]2[C@@H]3C(=O)C[C@@H]4CC(=O)CC[C@]4(C)[C@H]3CC[C@]12C)c1ccc(Cl)s1 [Compound I-77] | 0.25 (≈ 0.137 µg/mL) | 0.25 (≈ 0.137 µg/mL) | 0.25 (≈ 0.137 µg/mL) | 
C[C@H](CCC(=O)Nc1cccc(S(=O)(=O)O)c1)[C@H]1CC[C@H]2[C@@H]3[C@H](O)C[C@@H]4C[C@H](O)CC[C@]4(C)[C@H]3C[C@H](O)[C@]12C [CamSA, reference compound] |  |  |  | MIC ([1]; strain 1870, sodium taurocholate as germinant, BHIS medium, 37° C., OD580 for 60 min): >256 µM; MIC ([2]; strain 43255, sodium taurocholate as germinant, BHIS medium, 37° C., OD580 for 60 min): >256 µM; MIC ([3]; strain 630, sodium taurocholate as germinant, BHIS medium, 37° C., OD580 for 60 min): >256 µM
CC[C@@H](NC(=O)C[C@@H](C)[C@H]1CC[C@H]2[C@@H]3[C@H](O)C[C@@H]4C[C@H](O)CC[C@]4(C)[C@H]3CC[C@]12C)c1ccc(Cl)s1 [Compound I-137] | 1 (≈ 0.536 µg/mL) | 1 (≈ 0.536 µg/mL) | 1 (≈ 0.536 µg/mL) | 
CC[C@@H](NC(=O)C[C@@H](C)[C@H]1CC[C@H]2[C@@H]3[C@H](OC(=O)CCCCCCC(=O)O)C[C@@H]4CC(=O)CC[C@]4(C)[C@H]3CC[C@]12C)c1ccc(Cl)s1 [Compound I-187] | 0.125 (≈ 0.0863 µg/mL) | 0.125 (≈ 0.0863 µg/mL) | 0.125 (≈ 0.0863 µg/mL) | 
CC(C)[C@@H](NC(=O)C[C@@H](C)[C@H]1CC[C@H]2[C@@H]3C(=O)CC4=CC(=O)CC[C@]4(C)[C@H]3CC[C@]12C)c1ccc(Br)s1 [Compound I-152] | 1 (≈ 0.589 µg/mL) | 1 (≈ 0.589 µg/mL) | 0.5 (≈ 0.294 µg/mL) | 
CC[C@H](NC(=O)C[C@@H](C)[C@H]1CC[C@H]2[C@@H]3[C@H](O)C[C@@H]4CC(=O)CC[C@]4(C)[C@H]3CC[C@]12C)c1cccs1 [Compound I-132] | > 256 | 128 (≈ 64 µg/mL) | 256 (≈ 128 µg/mL) | 
CC(C)[C@@H](NC(=O)C[C@@H](C)[C@H]1CC[C@H]2[C@@H]3CC(=O)[C@@H]4CC(=O)CC[C@]4(C)[C@H]3CC[C@]12C)c1ccc(Cl)s1 [Compound I-131] | 2 (≈ 1.09 µg/mL) | 2 (≈ 1.09 µg/mL) | 2 (≈ 1.09 µg/mL) | 
CCC(NC(=O)C[C@@H](C)[C@H]1CC[C@H]2[C@@H]3C(=O)C[C@@H]4CC(=O)CC[C@]4(C)[C@H]3CC[C@]12C)c1ccc(S(=O)(=O)O)s1 (stereo partly drawn) [Compound I-39] | 1 (≈ 0.578 µg/mL) | 0.5 (≈ 0.289 µg/mL) | 0.5 (≈ 0.289 µg/mL) | 
CCCCCCCC(=O)O[C@@H]1C[C@@H]2CC(=O)CC[C@]2(C)[C@H]2CC[C@]3(C)[C@@H]([C@H](C)CC(=O)N[C@@H](c4ccc(Br)s4)C(C)C)CC[C@H]3[C@H]12 [Compound I-186] | 256 (≈ 184 µg/mL) | 256 (≈ 184 µg/mL) | 256 (≈ 184 µg/mL) | 
CC[C@H](NC(=O)C[C@@H](C)[C@H]1CC[C@H]2[C@@H]3[C@H](OS(=O)(=O)O)C[C@@H]4CC(=O)CC[C@]4(C)[C@H]3CC[C@]12C)c1ccc(Br)s1 [Compound I-108] | > 256 | > 256 | > 256 | 
CCC(NC(=O)C[C@@H](C)[C@H]1CC[C@H]2[C@@H]3C(=O)C[C@@H]4CC(=O)CC[C@]4(C)[C@H]3CC[C@]12C)c1ccc(Cl)s1 (stereo partly drawn) [Compound I-68] | 1 (≈ 0.532 µg/mL) | 2 (≈ 1.06 µg/mL) | 1 (≈ 0.532 µg/mL) | 
CC[C@@H](NC(=O)C[C@@H](C)[C@H]1CC[C@H]2[C@@H]3C(=O)C[C@@H]4CC(=O)CC[C@]4(C)[C@H]3CC[C@]12C)c1ccccc1 [Compound I-60] |  |  |  | MIC ([1]; Clostridioides difficile, ATCCBBA1870STRAIN, 1 h): 2 µM (≈ 0.983 µg/mL); MIC ([2]; Clostridioides difficile, ATCC43255, 1 h): 2 µM (≈ 0.983 µg/mL); MIC ([3]; Clostridioides difficile, ATCC630, 1 h): 2 µM (≈ 0.983 µg/mL)
CC[C@@H](NC(=O)C[C@@H](C)[C@H]1CC[C@H]2[C@@H]3[C@H](O)C[C@@H]4CC(=O)CC[C@]4(C)[C@H]3CC[C@]12C)c1ccc(Br)s1 [Compound I-91] | 0.25 (≈ 0.145 µg/mL) | 0.25 (≈ 0.145 µg/mL) | 0.25 (≈ 0.145 µg/mL) | 
C[C@H](CC(=O)NCC1CC1)[C@H]1CC[C@H]2[C@@H]3[C@@H](O)C[C@@H]4C[C@H](O)CC[C@]4(C)[C@H]3CC[C@]12C [Compound I-10] | 32 (≈ 13.8 µg/mL) | 32 (≈ 13.8 µg/mL) | 32 (≈ 13.8 µg/mL) | 
CC[C@@H](NC(=O)C[C@@H](C)[C@H]1CC[C@H]2[C@@H]3[C@H](O)C[C@@H]4CC(=O)CC[C@]4(C)[C@H]3CC[C@]12C)c1cccs1 [Compound I-133] | 2 (≈ 1 µg/mL) | 2 (≈ 1 µg/mL) | 2 (≈ 1 µg/mL) | 
CC[C@H](NC(=O)C[C@@H](C)[C@H]1CC[C@H]2[C@@H]3[C@H](O)C[C@@H]4CC(=O)CC[C@]4(C)[C@H]3CC[C@]12C)c1ccc(Cl)s1 [Compound I-87] | 256 (≈ 137 µg/mL) | 128 (≈ 68.4 µg/mL) | 128 (≈ 68.4 µg/mL) | 
CC(C)[C@H](NC(=O)C[C@@H](C)[C@H]1CC[C@H]2[C@@H]3C(=O)C[C@@H]4CC(=O)CC[C@]4(C)[C@H]3CC[C@]12C)c1cccs1 [Compound I-67] | > 256 | > 256 | > 256 | 
CC[C@@H](NC(=O)C[C@@H](C)[C@H]1CC[C@H]2[C@@H]3[C@H](O)CC4=CC(=O)C=C[C@]4(C)[C@H]3CC[C@]12C)c1ccc(Cl)s1 [Compound I-161-2] | 0.25 (≈ 0.133 µg/mL) | 0.5 (≈ 0.265 µg/mL) | 0.25 (≈ 0.133 µg/mL) | 
CC[C@@H](NC(=O)C[C@@H](C)[C@H]1CC[C@H]2[C@@H]3[C@H](OC(=O)CCC(=O)O)C[C@@H]4CC(=O)CC[C@]4(C)[C@H]3CC[C@]12C)c1ccc(Br)s1 [Compound I-180] | 2 (≈ 1.36 µg/mL) | 2 (≈ 1.36 µg/mL) | 1 (≈ 0.679 µg/mL) | 
